Experimental data: ChEMBL document CHEMBL1212921, “Design, synthesis, enzyme-inhibitory activity, and effect on human cancer cells of a novel series of jumonji domain-containing protein 2 histone demethylase inhibitors” (J Med Chem, 2010)
pIC50: −log10 of the molar value. Active and inactive are the calls of the source. The calls are words filed in the database; no cut-off is given here.

Experiments:
Egl nine homolog 1 = Egl nine homolog 1 (Homo sapiens, UniProt Q9GZT9); experiment: Inhibition of human recombinant PHD2 expressed in Sf9 cells by time-resolved fluorescence assay
Sequence of Egl nine homolog 1 (Q9GZT9 whole entry): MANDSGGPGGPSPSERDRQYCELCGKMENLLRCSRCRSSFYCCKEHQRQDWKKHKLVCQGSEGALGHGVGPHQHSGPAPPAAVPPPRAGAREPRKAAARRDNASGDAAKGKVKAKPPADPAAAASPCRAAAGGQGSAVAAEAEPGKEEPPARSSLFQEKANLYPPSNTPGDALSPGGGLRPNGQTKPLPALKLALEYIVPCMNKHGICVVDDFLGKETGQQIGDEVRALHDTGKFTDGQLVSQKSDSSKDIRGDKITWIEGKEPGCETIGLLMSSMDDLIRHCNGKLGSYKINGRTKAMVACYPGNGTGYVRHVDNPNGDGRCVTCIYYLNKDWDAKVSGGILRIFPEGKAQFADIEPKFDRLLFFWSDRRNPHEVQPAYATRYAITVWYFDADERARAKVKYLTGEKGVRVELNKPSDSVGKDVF

[1] = target: T1, Lysine-specific demethylase 4A (Homo sapiens, UniProt O75164); experiment: Inhibition of recombinant His-tagged JMJD2A expressed in Escherichia coli Rosetta 2 (DE3) pLysS cells by formaldehyde dehydrogenase-coupled assay
T1 sequence (O75164 whole entry): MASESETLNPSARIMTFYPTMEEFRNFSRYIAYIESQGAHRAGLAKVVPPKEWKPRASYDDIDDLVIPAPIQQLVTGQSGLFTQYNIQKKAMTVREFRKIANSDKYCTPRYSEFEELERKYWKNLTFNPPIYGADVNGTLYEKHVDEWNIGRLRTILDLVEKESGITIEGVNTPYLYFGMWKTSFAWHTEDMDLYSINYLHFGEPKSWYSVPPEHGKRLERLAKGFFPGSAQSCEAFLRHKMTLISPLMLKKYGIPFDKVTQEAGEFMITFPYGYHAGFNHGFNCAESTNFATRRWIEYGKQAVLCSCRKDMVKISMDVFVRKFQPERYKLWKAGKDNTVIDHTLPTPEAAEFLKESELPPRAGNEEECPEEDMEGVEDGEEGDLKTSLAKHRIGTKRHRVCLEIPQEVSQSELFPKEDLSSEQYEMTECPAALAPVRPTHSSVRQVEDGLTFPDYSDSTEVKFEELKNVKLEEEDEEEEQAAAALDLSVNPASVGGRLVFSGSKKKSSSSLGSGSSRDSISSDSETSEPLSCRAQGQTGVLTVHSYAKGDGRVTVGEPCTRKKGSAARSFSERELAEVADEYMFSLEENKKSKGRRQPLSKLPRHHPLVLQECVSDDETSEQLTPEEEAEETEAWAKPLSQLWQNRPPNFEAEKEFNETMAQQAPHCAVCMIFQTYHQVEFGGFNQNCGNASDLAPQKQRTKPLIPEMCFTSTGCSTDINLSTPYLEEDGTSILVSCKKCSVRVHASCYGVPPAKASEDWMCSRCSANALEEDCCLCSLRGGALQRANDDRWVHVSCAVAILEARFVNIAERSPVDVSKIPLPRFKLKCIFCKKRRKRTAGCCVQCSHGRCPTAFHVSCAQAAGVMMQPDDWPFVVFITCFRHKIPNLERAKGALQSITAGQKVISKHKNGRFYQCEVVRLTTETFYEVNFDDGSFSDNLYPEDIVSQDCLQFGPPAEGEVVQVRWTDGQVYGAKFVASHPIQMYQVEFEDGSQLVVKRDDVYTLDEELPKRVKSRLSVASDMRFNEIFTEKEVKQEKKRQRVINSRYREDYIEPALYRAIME

Prolyl hydroxylase EGLN2 = Prolyl hydroxylase EGLN2 (Homo sapiens, UniProt Q96KS0); experiment: Inhibition of human recombinant PHD1 expressed in Sf9 cells by time-resolved fluorescence assay
Sequence of Prolyl hydroxylase EGLN2 (Q96KS0 whole entry): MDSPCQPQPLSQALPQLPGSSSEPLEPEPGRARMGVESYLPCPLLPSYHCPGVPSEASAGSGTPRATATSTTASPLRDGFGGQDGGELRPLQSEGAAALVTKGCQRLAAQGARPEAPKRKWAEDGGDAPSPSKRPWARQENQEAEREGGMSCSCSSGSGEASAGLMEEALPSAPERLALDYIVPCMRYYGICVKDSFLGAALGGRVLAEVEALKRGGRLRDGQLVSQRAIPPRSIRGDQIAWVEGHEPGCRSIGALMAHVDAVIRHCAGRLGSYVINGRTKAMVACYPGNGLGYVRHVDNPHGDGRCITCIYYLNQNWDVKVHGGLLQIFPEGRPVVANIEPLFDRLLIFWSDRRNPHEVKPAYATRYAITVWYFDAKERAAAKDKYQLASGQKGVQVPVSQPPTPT

[2] = target: T2, Lysine-specific demethylase 4C (Homo sapiens, UniProt Q9H3R0); experiment: Inhibition of recombinant His-tagged JMJD2C expressed in Escherichia coli Rosetta 2 (DE3) pLysS cells by formaldehyde dehydrogenase-coupled assay
T2 sequence (Q9H3R0 whole entry): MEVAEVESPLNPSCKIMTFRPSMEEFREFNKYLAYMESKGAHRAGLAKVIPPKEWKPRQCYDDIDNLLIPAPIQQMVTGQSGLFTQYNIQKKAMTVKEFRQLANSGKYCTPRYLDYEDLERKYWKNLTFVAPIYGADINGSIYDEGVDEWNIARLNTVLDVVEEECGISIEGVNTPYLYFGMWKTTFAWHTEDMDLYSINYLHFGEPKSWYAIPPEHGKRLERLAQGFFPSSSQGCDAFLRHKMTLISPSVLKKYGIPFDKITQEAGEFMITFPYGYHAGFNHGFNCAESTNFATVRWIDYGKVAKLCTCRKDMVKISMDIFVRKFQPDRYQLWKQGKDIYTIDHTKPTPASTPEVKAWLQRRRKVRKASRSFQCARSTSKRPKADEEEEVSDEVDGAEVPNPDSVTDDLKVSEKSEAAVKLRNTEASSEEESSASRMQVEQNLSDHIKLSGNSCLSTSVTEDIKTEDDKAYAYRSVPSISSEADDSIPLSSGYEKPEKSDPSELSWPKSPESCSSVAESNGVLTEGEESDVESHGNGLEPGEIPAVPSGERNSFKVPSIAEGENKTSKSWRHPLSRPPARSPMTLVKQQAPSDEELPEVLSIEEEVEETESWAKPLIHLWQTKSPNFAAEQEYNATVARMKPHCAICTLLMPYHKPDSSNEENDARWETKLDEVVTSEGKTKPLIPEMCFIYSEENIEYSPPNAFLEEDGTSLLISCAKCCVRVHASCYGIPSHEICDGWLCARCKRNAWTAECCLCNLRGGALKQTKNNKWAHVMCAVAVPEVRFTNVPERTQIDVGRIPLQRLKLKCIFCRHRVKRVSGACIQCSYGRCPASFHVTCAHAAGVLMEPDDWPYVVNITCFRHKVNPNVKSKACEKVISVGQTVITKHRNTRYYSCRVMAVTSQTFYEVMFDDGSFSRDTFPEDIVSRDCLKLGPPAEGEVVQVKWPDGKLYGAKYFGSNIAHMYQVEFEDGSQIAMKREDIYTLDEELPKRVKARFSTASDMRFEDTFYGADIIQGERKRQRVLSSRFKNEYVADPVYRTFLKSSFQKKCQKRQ

LNCaP [3] = experiment: Cytotoxicity against human LNCAP cells expressing JMJD2C at 100 uM after 72 hrs by Alamar blue assay; type: functional, cell-based
LNCaP [4] = experiment: Cytotoxicity against human LNCAP cells expressing JMJD2C at 30 uM after 72 hrs by Alamar blue assay; type: functional, cell-based
LNCaP [5] = experiment: Cytotoxicity against human LNCAP cells expressing JMJD2C after 72 hrs by Alamar blue assay; type: functional
HCT-116 = experiment: Cytotoxicity against human HCT116 cells at 30 uM after 72 hrs by Alamar blue assay; type: functional, cell-based
PC-3 = experiment: Cytotoxicity against human PC3 cells at 30 uM after 72 hrs by Alamar blue assay; type: functional, cell-based
KYSE-150 = experiment: Cytotoxicity against human KYSE-150 cells at 30 uM after 72 hrs by Alamar blue assay; type: functional, cell-based

pIC50 (Egl nine homolog 1) | pIC50 [1] | pIC50 (Prolyl hydroxylase EGLN2; read-out: IC50) | pIC50 [2] | SMILES | further results
< 4.00 | 5.26 | < 4.00 | 5.80 | CN(C)CCCCCCCCCC(=O)N(O)CCC(=O)O | –
< 4.00 | 5.52 | < 4.00 | 6.00 | CN(C)CCCCCCCCC(=O)N(O)CCC(=O)O | Activity (LNCaP [3]): inactive; Activity (LNCaP [4]): inactive
– | – | – | – | O=C(O)c1ccnc(C(=O)O)c1 | pIC50 (Prolyl hydroxylase EGLN2): 5.82
< 4.00 | 5.49 | < 4.00 | – | CCCCN(C)CCCCCCCCC(=O)N(O)CCC(=O)O | –
– | 4.96 | – | 5.28 | CN(C)CCCCCCCCCCC(=O)N(O)CCC(=O)O | –
– | 5.70 | – | 5.89 | CN(CCCCCCCCC(=O)N(O)CCC(=O)O)Cc1ccccc1 | –
– | 5.06 | – | 5.57 | CN(C)CCCCCCC(=O)N(O)CCC(=O)O | –
– | 4.66 | – | 5.06 | CN(C)CCCCCCCCCCCC(=O)N(O)CCC(=O)O | –
– | 4.77 | – | 5.00 | CN(C)CCCCCC(=O)N(O)CCC(=O)O | –
– | 5.36 | – | 5.77 | CNCCCCCCCCC(=O)N(O)CCC(=O)O | –
< 4.00 | 5.22 | < 4.00 | 5.82 | CN(C)CCCCCCCC(=O)N(O)CCC(=O)O | –
– | – | – | – | N[C@@H]1C[C@H]1c1ccc(OCC[C@H](NC(=O)c2ccccc2)C(=O)NCc2ccccc2)cc1 | GI50 (LNCaP [5]): 36 µM
– | 3.92 | – | 4.13 | CC(C)CCCCCC(=O)N(O)CCC(=O)O | –
– | – | – | – | COC(=O)CCN(O)C(=O)CCCCCCCCN(C)C | Activity (HCT-116): inactive; Activity (LNCaP [3]): inactive; Activity (PC-3): inactive; Activity (KYSE-150): inactive; Activity (LNCaP [4]): inactive
< 4.00 | 4.85 | < 4.00 | 4.47 | CC(=O)N(O)CCC(=O)O | –
– | – | – | – | COC(=O)c1ccnc(C(=O)OC)c1 | Activity (HCT-116): inactive; Activity (LNCaP [3]): inactive; Activity (PC-3): inactive; Activity (LNCaP [4]): inactive
< 4.00 | 5.09 | < 4.00 | 5.70 | CN(C)CCCCCCCCN(O)C(=O)CCC(=O)O | –
– | 3.60 | 5.68 | 3.30 | O=C(O)CNC(=O)C(=O)O [N-OXALYLGLYCINE] | –
